We go through 3 compounds from patent publication US20210340552A1, “High-Throughput Screening Platform for Longevity Genes and Anti-Aging Drugs” (The Regents of the University of California, priority 2018, published 2021).

The test system of the assay is yeast cells. As to the kind of experiment: Replicative lifespan (RLS) measurement with the DAP yeast strain and 96-well microfluidic device. It is filed as cell-based, Saccharomyces cerevisiae. The procedure:
The IDS2GH or IDS2RH transformed yeast cells were cultured in YEPG [For 1 L medium: Bacto yeast extract (Difco 0127-17) (1%) 10 g, Bacto peptone (Difco 0118-17) (2%) 20 g, Galactose (2%) 20 g] at 30° C. for 15 hours, after which time the cells were diluted 1:20 in fresh YEPG and grown for another 3 hours. The cells were centrifuged and washed 3 times with YEP [For 1 L medium: Bacto yeast extract (Difco 0127-17) (1%) 10 g, Bacto peptone (Difco 0118-17) (2%) 20 g]. Finally, the cells were resuspended in an equal volume of YEP, then diluted at a 1:5 ratio in fresh YEP and incubated at 30° C. for another 3 hours; this last step allowed separation of any aggregates of cells.
The water in the wells was discarded, and 100 μl of cells (˜1×10^6 cells/ml) were loaded into inlet wells in columns 1, 4, 7, 10 of the multiwell plate. The plate was then sealed with the 32-channel cover by applying vacuum to the sealing channel, and cell flow started by applying 4 psi air pressure to the loading channel for 10 seconds. Any remaining cells in the wells are discarded, and 300 μl autoclaved ddH2O added to wash the cells, applying 25 psi air pressure to the loading channel for 10 seconds. The remaining water in the wells was again discarded, and 300 μl YEPD [For 1 L medium: Bacto yeast extract (Difco 0127-17) (1%) 10 g, Bacto peptone (Difco 0118-17) (2%) 20 g, Dextrose (2%) 20 g] added, and the cells were washed by applying 2 psi air pressure to the loading channel for 240 seconds. The remaining YEPD in the wells was discarded and 300 μl fresh YEPD added to each well in columns 1, 3, 4, 6, 7, 9, 10, 12. […]
Using the DAP system and the high-throughput microfluidic devices, the lifespan of a number of mutants and the effect of several drugs on lifespan were analyzed. […] The total number of cells in each trapping unit was counted and the fluorescent signal was used to determine the number of DAP mother cells loaded in the trapping unit, allowing the lifespan of the mother cells to be determined unambiguously. […]

SMILES strings stand for the structures.

For the compound `CN(C)C(=N)N=C(N)N` [metformin], the lifespan extension effect result (range of concentrations tested from 4 μM to 8 mM, data not shown) is “not observed”.
`CO[C@H]1C[C@@H]2CC[C@@H](C)[C@@](O)(O2)C(=O)C(=O)N2CCCC[C@H]2C(=O)O[C@H]([C@H](C)C[C@@H]2CC[C@@H](O)[C@H](OC)C2)CC(=O)[C@H](C)/C=C(\C)[C@@H](O)[C@@H](OC)C(=O)[C@H](C)C[C@H](C)/C=C/C=C/C=C/1C` [rapamycin] registered a lifespan extension (100 nM concentration, three independent experiments, p=2.4×10^−10, FIG. 4A) of 19%.
Where the note is “200 JIM concentration, p=6×10^−6, FIG. 4B”, `NCCCCNCCCN` [spermidine] came in with a lifespan extension of 28%.
